Where a name gives a salt, the structure may show the parent alone. Read-outs that look alike come from different tables or passages of the source.
Tested on: apomorphine-induced climbing
Assay: climbing mice assay: block of apomorphine-induced climbing (antipsychotic activity)
Assay type: in vivo, CK-1 male mice
Conditions: Mus musculus, ip, read-out: Antipsychotic Activity ED50
Description: The subject CK-1 male mice (23-27 grams) are […] under standard laboratory conditions. The mice are individually placed in wire mesh stick cages (4"×4"10") and are allowed one hour for adaptation and exploration of the new environment.
For evaluation of climbing, 3 readings are taken at 10, 20, and 30 minutes after apomorphine administration according to the following scale:
2 paws on wall (rearing)
4 paws on the wall (full climbing)
Mice consistently climbing before the injections of apomorphine will be discarded.
With full-developed apomorphine climbing, the animals are hanging onto the cage walls, rather motionless, over long periods of time. By contrast, climbs due to mere motor stimulation usually only last a few seconds.
The climbing scores are individually totaled (maximal score: 6 per mouse over 3 readings) and the total score of the control group (vehicle intraperitoneally-apomorphine subcutaneously) is set 100%.

[1] = mice, intraperitoneal 30 minutes prior to apomorphine 1.5 mg/kg s.c., climbing readings at 10, 20, 30 minutes, linear regression

CCN1CCCC1CNC(=O)c1cc(S(N)(=O)=O)ccc1OC (stereo not drawn) [Sulpiride, reference compound]
ED50 [1]: 4.5 mg/kg

COc1ccccc1N1CCN(C/C=C\CN2C(=O)CSC2=O)CC1 [Z-1-(3-Thiazolidine-2,4-dione)-4-[4-(2-methoxyphenyl)-1-piperazinyl]-2-butene dihydrochloride]
ED50 [1]: 19.8 mg/kg

COc1ccccc1N1CCN(C/C=C/CN2C(=O)c3ccccc3C2=O)CC1 [E-1-(N-Phthalimido)-4-[4-(2-methoxyphenyl)-1-piperazinyl]-2-butene hydrochloride hemihydrate]
ED50 [1]: 7.3 mg/kg

COc1ccccc1N1CCN(C/C=C\CN2C(=O)c3ccc(Cl)cc3C2=O)CC1 [Z-1-N-(4-Chlorophthalimido)-4-[4-(2-methoxyphenyl)-1-piperazinyl]-2-butene dihydrochloride hemihydrate]
ED50 [1]: 15.4 mg/kg

COc1ccccc1N1CCN(C/C=C\CN2C(=O)c3ccccc3C2=O)CC1 [Z-1-(N-Phthalimido)-4-[4-(2-methoxyphenyl)-4-piperazinyl)]-2-butene dihydrochloride]
ED50 [1]: 10.3 mg/kg

O=C(CCCN1CCC(O)(c2ccc(Cl)cc2)CC1)c1ccc(F)cc1 [Haloperidol, reference compound]
ED50: 0.11 mg/kg
